Source: US20090192101A1, “CANCER-SPECIFIC PROMOTERS” (priority 2006, published 2009)

Assays:
[1] = system: human normal and cancer cells; assay: Transient luciferase assay, promoter activity compared to CMV promoter; assay type: cell-based; conditions: electroporation, 24 hrs
Method: The activities of claudin 4 and fatty acid synthase promoters were compared to CMV promoter. […] 1×10^6 cells were transfected with 2 μg pGl3-claudin 4 luciferase vector, as well as 0.2 μg pRL-TK as internal standards by electroporation. The luciferase activity was measured after 24 hrs. The activities of claudin 4 and fatty acid synthase promoters were much weaker than that of CMV promoter, and were about 0.5% and 5% of CMV expression activity, respectively.

[2] = system: breast cancer cell lines; assay: Transient luciferase assay of promoter activity (electroporation, 24 hrs); assay type: cell-based, human; conditions: breast cancer cell lines such as T47D, MDA-MB-435, 2 μg vector
Method: (§1) Cells (1×10^6) were transfected with 2 μg pGl3-FASN-luciferase vector, as well as 0.2 μg pRL-TK as internal standards by electroporation. The luciferase activity was measured after 24 hrs.
(§2) In FIG. 2, the promoter activities of tight junction protein Claudin 4 in human normal and cancer cells is shown. Cells (1×10^6) were transfected with 2 μg pGl3-claudin 4 luciferase vector, as well as 0.2 μg pRL-TK as internal standards by electroporation. The luciferase activity was measured after 24 hrs.
(§3) Cells (1×10^6) were transfected with 2 μg VISA-claudin 4 or VISA-fatty acid synthase promoter vector, as well as 0.2 μg pRL-TK as internal standards by electroporation. The luciferase activity was measured after 24 hrs.
(§4) 1×10^6 cells were transfected with 2 μg pGl3-FASN-luciferase vector, as well as 0.2 μg pRL-TK as internal standards by electroporation. The luciferase activity was measured after 24 hrs. […]
(§5) Expression of claudin 4 promoter was ascertained in breast cancer cell lines, normal cell lines, and other cancer cell lines by transient luciferase assay. […] The luciferase activity was measured after 24 hrs. […]
(§6) 1×10^6 cells were transfected with 2 μg pGL3-VISA-Claudin4-Luc or pGL3-VISA-FASN-Luc plasmid, as well as 0.2 μg pRL-TK as internal standards by electroporation. The luciferase activities were measured 24 hrs after transient transfection. […]

[3] = system: normal and other cancer cell lines; assay: as above; assay type: cell-based, human; conditions: 2 μg vector
Method: as §1, §2, §3, §4, §5, §6

## FASN promoter: fatty acid synthase promoter driving luciferase in pGl3 vector
[1]
  promoter activity as % of CMV expression activity: ~5%
[2]
  promoter activity (luciferase) in breast cancer cell lines: highly expressed
[3]
  promoter expression (luciferase) in normal and other cancer cell lines: low
